Experiment [1] concerns the target 5-hydroxytryptamine receptor 1B (Rattus norvegicus, UniProt P28564). Format: cell membranes, Wistar, Cerebral cortex, Membrane. Further: in other assays of this panel Not Active means under 50% inhibition at 10 µM.
Experiment [2] addresses Vascular endothelial growth factor receptor 1 (Homo sapiens, UniProt P17948). The experiment can be described thus: biochemical. Conditions: huvec. It counts as cell-based, HUVEC.
A short description of experiment [3]: DRUGMATRIX: Glutamate, AMPA radioligand binding (ligand: [3H] AMPA). Format: cell membranes, Rattus norvegicus, Wistar, Cerebral cortex, Membrane. Conditions: Not Active = under 50% inhibition at 10 µM.
Experiment [4] can be described thus: DRUGMATRIX: Potassium Channel [KATP] radioligand binding (ligand: [3H] Glyburide). It counts as cell membranes, Membrane. Conditions: hit-t15; Not Active = under 50% inhibition at 10 µM.
The target of experiment [5] is T1, Type-2 angiotensin II receptor (Homo sapiens, UniProt P50052). Further: in other assays of this panel Not Active means under 50% inhibition at 10 µM.
T1 sequence (P50052 whole entry): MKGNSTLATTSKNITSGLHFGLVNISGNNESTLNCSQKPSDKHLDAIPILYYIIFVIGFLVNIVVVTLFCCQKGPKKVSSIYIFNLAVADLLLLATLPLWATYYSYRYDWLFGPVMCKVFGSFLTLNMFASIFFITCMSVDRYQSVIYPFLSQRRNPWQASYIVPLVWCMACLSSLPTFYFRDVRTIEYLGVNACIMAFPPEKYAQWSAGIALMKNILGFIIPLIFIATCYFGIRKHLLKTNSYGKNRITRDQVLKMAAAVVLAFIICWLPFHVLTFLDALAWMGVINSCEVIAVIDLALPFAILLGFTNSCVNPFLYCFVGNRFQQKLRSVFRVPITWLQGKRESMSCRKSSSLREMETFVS
It counts as cell-based. To be noted: cho-k1.

The target of experiment [6] is Prostaglandin G/H synthase 1 (Homo sapiens, UniProt P23219). The experiment can be described thus: biochemical. It counts as tissue-based, Platelet.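 Further: inhibition of COX-1 enzyme activity, with arachidonic acid supplied as substrate; in other assays of this panel Not Active means under 50% inhibition at 10 µM.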
Sequence of Prostaglandin G/H synthase 1 (P23219 whole entry): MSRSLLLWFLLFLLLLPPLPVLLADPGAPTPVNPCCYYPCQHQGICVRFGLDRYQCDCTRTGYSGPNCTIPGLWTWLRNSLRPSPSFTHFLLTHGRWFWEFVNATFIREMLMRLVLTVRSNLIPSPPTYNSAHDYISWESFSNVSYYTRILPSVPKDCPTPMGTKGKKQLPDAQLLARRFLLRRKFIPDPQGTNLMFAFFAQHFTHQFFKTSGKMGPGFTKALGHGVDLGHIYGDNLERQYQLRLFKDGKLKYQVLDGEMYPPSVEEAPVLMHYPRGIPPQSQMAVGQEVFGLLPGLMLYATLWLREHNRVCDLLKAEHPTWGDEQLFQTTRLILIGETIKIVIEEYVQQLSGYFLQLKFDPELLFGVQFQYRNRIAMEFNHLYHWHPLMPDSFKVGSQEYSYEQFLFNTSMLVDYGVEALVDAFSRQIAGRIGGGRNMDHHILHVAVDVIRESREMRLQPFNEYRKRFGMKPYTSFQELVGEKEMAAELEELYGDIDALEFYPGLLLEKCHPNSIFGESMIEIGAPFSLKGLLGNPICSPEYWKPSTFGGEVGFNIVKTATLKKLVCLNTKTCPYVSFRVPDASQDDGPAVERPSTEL

Sequence of 5-hydroxytryptamine receptor 1B (P28564 whole entry): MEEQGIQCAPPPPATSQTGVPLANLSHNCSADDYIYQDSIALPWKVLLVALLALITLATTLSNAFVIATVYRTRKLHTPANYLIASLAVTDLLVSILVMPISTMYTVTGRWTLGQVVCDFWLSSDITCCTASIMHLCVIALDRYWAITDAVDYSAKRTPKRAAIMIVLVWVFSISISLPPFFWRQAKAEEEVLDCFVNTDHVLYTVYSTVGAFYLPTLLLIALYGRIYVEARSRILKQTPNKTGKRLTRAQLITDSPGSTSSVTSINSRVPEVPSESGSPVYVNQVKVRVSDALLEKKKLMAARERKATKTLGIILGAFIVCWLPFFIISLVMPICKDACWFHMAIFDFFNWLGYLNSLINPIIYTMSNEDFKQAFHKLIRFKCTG
Sequence of Vascular endothelial growth factor receptor 1 (P17948 whole entry): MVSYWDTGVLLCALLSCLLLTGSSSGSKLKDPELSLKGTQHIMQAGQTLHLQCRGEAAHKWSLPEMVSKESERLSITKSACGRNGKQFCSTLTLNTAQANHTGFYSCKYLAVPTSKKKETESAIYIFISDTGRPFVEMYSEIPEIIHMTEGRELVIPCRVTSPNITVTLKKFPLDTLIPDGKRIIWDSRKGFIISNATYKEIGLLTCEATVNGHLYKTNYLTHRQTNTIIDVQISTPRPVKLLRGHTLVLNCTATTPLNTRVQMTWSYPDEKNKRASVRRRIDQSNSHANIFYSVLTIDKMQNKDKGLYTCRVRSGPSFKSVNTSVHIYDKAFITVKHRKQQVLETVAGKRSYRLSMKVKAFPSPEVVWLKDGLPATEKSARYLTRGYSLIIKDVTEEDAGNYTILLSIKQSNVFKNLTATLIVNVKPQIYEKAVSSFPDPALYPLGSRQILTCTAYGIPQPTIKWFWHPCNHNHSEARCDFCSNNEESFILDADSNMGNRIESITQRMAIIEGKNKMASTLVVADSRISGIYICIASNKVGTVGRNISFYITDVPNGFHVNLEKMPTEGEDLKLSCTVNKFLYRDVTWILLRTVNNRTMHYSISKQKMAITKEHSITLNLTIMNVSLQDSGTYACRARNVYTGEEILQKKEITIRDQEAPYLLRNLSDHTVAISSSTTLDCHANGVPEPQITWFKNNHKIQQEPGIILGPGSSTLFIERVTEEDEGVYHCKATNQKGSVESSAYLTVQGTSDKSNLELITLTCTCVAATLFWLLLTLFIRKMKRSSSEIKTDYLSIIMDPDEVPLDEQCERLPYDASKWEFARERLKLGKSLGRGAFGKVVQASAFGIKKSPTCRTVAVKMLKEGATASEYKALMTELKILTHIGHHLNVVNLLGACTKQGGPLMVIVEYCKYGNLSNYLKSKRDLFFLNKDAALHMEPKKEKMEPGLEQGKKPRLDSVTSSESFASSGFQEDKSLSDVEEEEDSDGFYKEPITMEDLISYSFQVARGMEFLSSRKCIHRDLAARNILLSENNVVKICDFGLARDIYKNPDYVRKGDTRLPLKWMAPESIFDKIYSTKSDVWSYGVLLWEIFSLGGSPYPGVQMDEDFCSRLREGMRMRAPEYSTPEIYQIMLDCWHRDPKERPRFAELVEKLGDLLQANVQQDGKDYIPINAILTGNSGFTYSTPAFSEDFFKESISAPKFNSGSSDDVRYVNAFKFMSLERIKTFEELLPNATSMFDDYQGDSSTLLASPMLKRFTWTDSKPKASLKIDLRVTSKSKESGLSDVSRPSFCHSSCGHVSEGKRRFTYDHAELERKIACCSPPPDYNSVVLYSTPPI

With `O=c1cc(-c2ccccc2)oc2ccc3ccccc3c12` [BETA-NAPHTHOFLAVONE], the IC50 entry in experiment [1], in experiment [2], in experiment [3], in experiment [4], in experiment [5] and in experiment [6] (platelet) was “Not Active” throughout. For the same molecule, the Ki result in experiment [3] and in experiment [4] was “Not Active” each time.
Regarding `CC(C)C[C@H]1C(=O)N2CCC[C@H]2[C@]2(O)O[C@](NC(=O)[C@@H]3C=C4c5cccc6[nH]c(Br)c(c56)C[C@H]4N(C)C3)(C(C)C)C(=O)N12` [BROMOCRIPTINE], the IC50 in experiment [1] (read-out: IC50) was 103 nM; in experiment [2] it was “Not Active”; in experiment [3] it was “Not Active”; in experiment [4], “Not Active”; in experiment [5] it was “Not Active”; in experiment [6] (platelet), “Not Active”. Besides, the Ki in experiment [1] (read-out: Ki) was 47 nM; in experiment [3], “Not Active”; in experiment [4], “Not Active”.
Take `CS(=O)(=O)OCCCCOS(C)(=O)=O` [BUSULFAN]: the IC50 result in experiment [1], in experiment [2], in experiment [3], in experiment [4], in experiment [5] and in experiment [6] (platelet) was “Not Active” in each case. Also, the Ki entry in experiment [3] and in experiment [4] was “Not Active” in each case.
`O=C(/C=C/c1ccc(O)c(O)c1)OCCc1ccccc1` [CAFFEIC ACID PHENETHYL ESTER]: the IC50 entry was “Not Active” in experiment [1]; “Not Active” in experiment [2]; “Not Active” in experiment [3]; “Not Active” in experiment [4]; “Not Active” in experiment [5]; 833 nM in experiment [6] (read-out: IC50). The inhibition constant (Ki) result in experiment [3] and in experiment [4] was “Not Active” each time.
For the molecule `COc1cc(CNC(=O)CCCC/C=C/C(C)C)ccc1O` [CAPSAICIN], the IC50 entry in experiment [1] was “Not Active”; in experiment [2], “Not Active”; in experiment [3], “Not Active”; in experiment [4] it was “Not Active”; in experiment [5] it was “Not Active”; in experiment [6] (read-out: IC50), 1550 nM. Further, the Ki result in experiment [3] and in experiment [4] was “Not Active” in each case.
As to `NC(=O)N1c2ccccc2C=Cc2ccccc21` [CARBAMAZEPINE], the IC50 entry in experiment [1], in experiment [2], in experiment [3], in experiment [4], in experiment [5] and in experiment [6] (platelet) was “Not Active” in each case. Further, the inhibitory constant (Ki) entry in experiment [3] and in experiment [4] was “Not Active” in each case.
Consider `CCOC(=O)n1ccn(C)c1=S` [CARBIMAZOLE], for which the IC50 result in experiment [1], in experiment [2], in experiment [3], in experiment [4], in experiment [5] and in experiment [6] (platelet) was “Not Active” in each case. In addition, the Ki entry in experiment [3] and in experiment [4] was “Not Active” throughout.
For the molecule `Oc1ccccc1O` [CATECHOL], the IC50 entry in experiment [1], in experiment [2], in experiment [3], in experiment [4], in experiment [5] and in experiment [6] (platelet) was “Not Active” in each case. In addition, the Ki entry in experiment [3] and in experiment [4] was “Not Active” throughout.
As to `CO[C@@]1(NC(=O)CSCC#N)C(=O)N2C(C(=O)O)=C(CSc3nnnn3C)CS[C@@H]21` [CEFMETAZOLE], the concentration for half-maximal inhibition (IC50) entry in experiment [1], in experiment [2], in experiment [3], in experiment [4], in experiment [5] and in experiment [6] (platelet) was “Not Active” in each case. For the same molecule, the Ki entry in experiment [3] and in experiment [4] was “Not Active” in each case.
Take `CN(C(=O)CCCOc1ccc2[nH]c(=O)ccc2c1)C1CCCCC1` [CILOSTAMIDE]: the IC50 result in experiment [1], in experiment [2], in experiment [3], in experiment [4], in experiment [5] and in experiment [6] (platelet) was “Not Active” each time. Moreover, the Ki entry in experiment [3] and in experiment [4] was “Not Active” in each case.
Turning to `CC(C)(Oc1ccc(C2CC2(Cl)Cl)cc1)C(=O)O` (stereo not given) [CIPROFIBRATE], the IC50 entry in experiment [1], in experiment [2], in experiment [3], in experiment [4], in experiment [5] and in experiment [6] (platelet) was “Not Active” throughout. Besides, the Ki entry in experiment [3] and in experiment [4] was “Not Active” in each case.
In the case of `Nc1nc(Cl)nc2c1ncn2[C@H]1C[C@H](O)[C@@H](CO)O1` [CLADRIBINE], the IC50 entry in experiment [1], in experiment [2], in experiment [3], in experiment [4], in experiment [5] and in experiment [6] (platelet) was “Not Active” throughout. Moreover, the Ki entry in experiment [3] and in experiment [4] was “Not Active” each time.
Take `CC[C@H]1OC(=O)[C@H](C)[C@@H](O[C@H]2C[C@@](C)(OC)[C@@H](O)[C@H](C)O2)[C@H](C)[C@@H](O[C@@H]2O[C@H](C)C[C@H](N(C)C)[C@H]2O)[C@](C)(OC)C[C@@H](C)C(=O)[C@H](C)[C@@H](O)[C@]1(C)O` [CLARITHROMYCIN]: the IC50 entry in experiment [1], in experiment [2], in experiment [3], in experiment [4], in experiment [5] and in experiment [6] (platelet) was “Not Active” each time. The Ki entry in experiment [3] and in experiment [4] was “Not Active” throughout.
For the molecule `CCC[C@@H]1C[C@@H](C(=O)N[C@@H]([C@H]2O[C@H](SC)[C@H](O)[C@@H](O)[C@H]2O)[C@H](C)Cl)N(C)C1` [CLINDAMYCIN], the IC50 entry in experiment [1], in experiment [2], in experiment [3], in experiment [4], in experiment [5] and in experiment [6] (platelet) was “Not Active” throughout. The Ki result in experiment [3] and in experiment [4] was “Not Active” in each case.
Take `O=C(O)c1cc(=O)c2c(OCC(O)COc3cccc4oc(C(=O)O)cc(=O)c34)cccc2o1` [CROMOLYN]: the IC50 result in experiment [1], in experiment [2], in experiment [3], in experiment [4], in experiment [5] and in experiment [6] (platelet) was “Not Active” throughout. The Ki entry in experiment [3] and in experiment [4] was “Not Active” throughout.
Regarding `O=P1(N(CCCl)CCCl)NCCCO1` (stereo not given) [CYCLOPHOSPHAMIDE ANHYDROUS], the half-maximal inhibitory concentration (IC50) entry in experiment [1], in experiment [2], in experiment [3], in experiment [4], in experiment [5] and in experiment [6] (platelet) was “Not Active” throughout. In addition, the Ki result in experiment [3] and in experiment [4] was “Not Active” each time.
In the case of `CC(=O)O[C@]1(C(C)=O)CC[C@H]2[C@@H]3C=C(Cl)C4=CC(=O)[C@@H]5C[C@@H]5[C@]4(C)[C@H]3CC[C@@]21C` [CYPROTERONE ACETATE], the IC50 result in experiment [1], in experiment [2], in experiment [3], in experiment [4], in experiment [5] and in experiment [6] (platelet) was “Not Active” throughout. Besides, the Ki entry in experiment [3] and in experiment [4] was “Not Active” throughout.
For `Nc1nc(N)nc(NC2CC2)n1` [CYROMAZINE], the IC50 entry in experiment [1], in experiment [2], in experiment [3], in experiment [4], in experiment [5] and in experiment [6] (platelet) was “Not Active” each time. Also, the Ki result in experiment [3] and in experiment [4] was “Not Active” in each case.
